Assay results: article PMC7822874, “Chemoprotective antimalarials identified through quantitative high-throughput screening of Plasmodium blood and liver stage parasites” (Scientific Reports, 2021); call rule not given here
Read-outs that look alike come from different tables or passages of the source.

Tests used:
[1] = tested on: luciferase-expressing P. berghei liver stage parasites in HepG2 cells; assay: Inhibition of liver-stage development assay (ILSDA), Method 2 (WRAIR, 96-well); format: cell-based, Plasmodium berghei; settings: Method 2, dose response; for Activity direction (Decrease / Inactive): P. berghei liver stage; for AC50: Plasmodium berghei, HepG2, P. berghei liver stage
[2] = tested on: Plasmodium falciparum Dd2 asexual blood stage parasites; assay: microbe, parasite or virus in culture; parameters: species or system Plasmodium falciparum Dd2 in human erythrocytes; single determination (one 11-point concentration-response curve); settings: Plasmodium falciparum, DD2, Erythrocyte, 72 h; read-out: AC50
[3] = tested on: P. berghei-ANKA-GFP-LucCON liver stage parasites in HepG2-A16-CD81EGFP cells; assay: P. berghei liver stage Pb-Luc assay, Method 1 (UCSD, 1536-well); format: cell-based, Plasmodium berghei; settings: Method 1

c1ccc(OCC2CN(Cc3ccc4[nH]ccc4c3)CC23CN(c2ccccc2)C3)cc1 (stereo not shown) [NCGC00415812-01]
Activity direction (Decrease / Inactive) [1]: Inactive

O=C(O)c1cccc(CN2CC(CNC(=O)c3ccccc3)C3(C2)CN(c2ccccc2)C3)c1 (stereo not shown) [NCGC00415857-01]
Activity direction (Decrease / Inactive) [1]: Decrease
AC50 ([1]; read-out: AC50): 891 nM
AC50 ([1]; read-out: Log AC50 (converted)): 891 nM

O=C(NCC1CN(C(=O)Cc2cccc(OC(F)(F)F)c2)CC12CN(c1ccccc1)C2)c1ccccc1 (stereo not shown) [NCGC00415900-01]
Activity direction (Decrease / Inactive) [1]: Inactive

CC(C)CCN1CC(CN[S+](=O)([O-])c2ccccc2)C2(C1)CN(c1ccccc1)C2 (stereo not shown) [NCGC00415920-01]
Activity direction (Decrease / Inactive) [1]: Decrease
AC50 ([1]; read-out: AC50): 2820 nM
AC50 ([1]; read-out: Log AC50 (converted)): 2820 nM

Oc1ccccc1CN1CC(CNc2cccnc2)C2(C1)CN(c1ccccc1)C2 (stereo not shown) [NCGC00415924-01]
AC50 [2]: 10900 nM
Activity direction (Decrease / Inactive) [1]: Inactive

O=[S+]([O-])(NCC1CN(Cc2ccc(O)cc2)CC12CN(c1ccccc1)C2)c1ccccc1 (stereo not shown) [NCGC00415939-01]
AC50 [2]: 6680 nM
Activity direction (Decrease / Inactive) [1]: Inactive

c1ccc(NCC2CN(Cc3ccccn3)CC23CN(c2ccccc2)C3)cc1 (stereo not shown) [NCGC00415982-01]
Activity direction (Decrease / Inactive) [1]: Inactive

Clc1cnccc1CN1CC(CNc2ccccc2)C2(C1)CN(c1ccccc1)C2 (stereo not shown) [NCGC00416018-01]
AC50 [2]: 13700 nM
Activity direction (Decrease / Inactive) [1]: Inactive

CC(=O)N1CCN(C(=O)c2ccc3c(c2)NC(C)(COc2ccc4[nH]ccc4c2)CO3)CC1 (stereo not shown) [NCGC00416302]
Activity direction (Decrease / Inactive) [1]: Inactive

COc1ccc(-n2nc(C)c([C@@H]3C=C[C@@H](NCc4ccc(F)cc4)C3)c2C)cc1 [NCGC00421412-01]
AC50 [2]: 1370 nM
Max Resp (signal direction of the dose response) ([3]; Decrease = decreasing P. berghei viability with dose, Increase = increasing signal, Inactive = no dose response): Decrease
AC50 ([3]; Hill fit, 50% of maximum activity response, read-out: AC50): 1780 nM
Log AC50 (M) ([3]; log10 of molar AC50 from Hill fit): -5.750 M
AC50 ([3]; Plasmodium berghei, Hill fit, 50% of maximum activity response, read-out: AC50): 1580 nM
AC50 ([3]; Plasmodium berghei, log10 of molar AC50 from Hill fit, read-out: Log AC50 (converted)): 1580 nM
Activity direction (Decrease / Inactive) [1]: Decrease
AC50 ([1]; read-out: AC50): 3980 nM
AC50 ([1]; read-out: Log AC50 (converted)): 3980 nM

Cc1nc2c(c(N3CCCC(COc4cccc(F)c4)C3)n1)CCNCC2 (stereo not shown) [NCGC00440030-01]
AC50 [2]: 8410 nM
Activity direction (Decrease / Inactive) [1]: Inactive

O=c1[nH]c(N2CCOCC2)nc2c1CCN(Cc1cc(Cl)ccc1F)CC2 [NCGC00440651]
Activity direction (Decrease / Inactive) [1]: Decrease
AC50 ([1]; read-out: AC50): 200 nM
AC50 ([1]; read-out: Log AC50 (converted)): 200 nM

CCCN1C(CC(C)C)=N[S+](=O)([O-])c2cc(NC(=O)C(C)C)ccc21 [NCGC00473220-01]
Activity direction (Decrease / Inactive) [1]: Decrease
AC50 ([1]; read-out: AC50): 1120 nM
AC50 ([1]; read-out: Log AC50 (converted)): 1120 nM

CC(=O)Nc1ccc2c(c1)[S+](=O)([O-])N=C(CC(C)C)N2CC(C)C [NCGC00473311-01]
Activity direction (Decrease / Inactive) [1]: Inactive

CC(C)C1=N[S+](=O)([O-])c2cc(NC(=O)c3ccco3)ccc2N1c1ccccc1 [NCGC00473412-01]
Activity direction (Decrease / Inactive) [1]: Inactive

CCC(C)C1=N[S+](=O)([O-])c2cc(NC(=O)c3ccco3)ccc2N1c1ccccc1 (stereo not shown) [NCGC00473608-01]
Activity direction (Decrease / Inactive) [1]: Decrease
AC50 ([1]; read-out: AC50): 3980 nM
AC50 ([1]; read-out: Log AC50 (converted)): 3980 nM

CC(=O)Nc1ccc2c(c1)[S+](=O)([O-])N=C(CC(C)C)N2c1ccccc1 [NCGC00475154-01]
Activity direction (Decrease / Inactive) [1]: Inactive

CC(C)CC1=N[S+](=O)([O-])c2cc(NC(=O)C3CC3)ccc2N1c1ccccc1 [NCGC00475156-01]
Activity direction (Decrease / Inactive) [1]: Decrease
AC50 ([1]; read-out: AC50): 3160 nM
AC50 ([1]; read-out: Log AC50 (converted)): 3160 nM

CCC1=N[S+](=O)([O-])c2cc(NC(=O)C3CC3)ccc2N1CC(C)C [NCGC00475158-01]
Activity direction (Decrease / Inactive) [1]: Inactive
